Like-named read-outs stand apart in the source and are kept apart here.
Key:
[1] = target: T1, PDE 2 enzyme isolated from human platelets (Homo sapiens, UniProt O00408); assay: PDE 2 enzyme scintillation proximity assay (SPA); format: biochemical
T1 construct: PDE 2 enzyme was isolated from human platelets; from tissue; host or cells: human platelets (pooled blood from multiple donors); HiTrap Q anion-exchange fraction eluting at about 325 mM NaCl
Method: PDE 2 enzyme was isolated from human platelets with approximately 1.4 L of blood from multiple donors used to make the platelet pellets. Platelets were resuspended in approximately 75 mL of lysis buffer [20 mM Tris pH 7.2, 5 mM MgCl2, 250 mM Sucrose, 1 mM DTT, 1 μL/2 mL Sigma Protease inhibitor #8340; Sigma-Aldrich; St. Louis, Mo.] and lysed by sonication at 4° C., with 3 rounds of 1 min bursts then spun at 4° C. overnight at 100,000×g. Cleared lysates were loaded to AKTA Explorer FPLC (Amersham Biosciences; Piscataway, N.J.) in a series of three chromatographic separations, with an average load volume of 25 mL. A 5 mL HiTrap Q anion exchange column (Amersham Biosciences) was used. […] Two major cGMP activity fractions (PDE 5 and PDE 2) were isolated and pooled separately. The PDE 2-pooled fraction total was approximately 40 mL which was dispensed in cryovials of 200 μl/vial and placed in storage at −80° C.
The inhibitory activity of the compounds of formula (I) on recombinant or isolated PDE 2, and other PDE's, was determined using the […] scintillation proximity assay (SPA) kits from Amersham International (Little Chalfont, England). The SPA assays were performed using 96 well plates. The PDE SPA yttrium silicate beads (Amersham Biosciences) bind preferentially to the linear nucleotide, GMP, compared to the cyclic nucleotide, cGMP. ^3H-cGMP was added to the reaction and when the product, ^3H-GMP, was in […] to the beads, the scintillant within the bead was excited, which was detected using a Packard scintillation counter (Perkin-Elmer Life Sciences; Boston, Mass.). The enzyme concentration used was in the linear range and the Km of the enzyme was determined (15 uM). The final substrate concentration was <1/3 of Km (1 μM) so that IC50 values would approximate the Ki values. The assay was validated using literature compounds as controls before testing compounds. Then, PDE catalytic activity measurements obtained in the presence of the test compound, and those obtained in the absence of the test compound, were compared and the lC50 value is determined. […]

[2] = test system: femur (periosteal bone induction); assay: Rat periosteal injection model; format: in vivo; conditions: daily local injection five times per week for two weeks; Day 15; male Sprague-Dawley rats
Method: Rats were anesthetized with isoflurane (2-3 min) in a conduction chamber located in a fume hood. The right hindlimb of each rat was shaved and cleaned. A 25 gauge needle attached to a syringe was pre-filled with a formulation of the test compound for local injection. The formulation was injected onto the subperiosteum of femur in a volume of 5-15 μL for 14 days. The rats were sacrificed after dosing, the femurs were collected, and then analyzed by radiography and dual-energy X-ray absorptiometry (DEXA).
The right femur of three-week old male Sprague-Dawley rats received a daily injection of vehicle or test compound five times per week for two weeks. On Day 15, all rats were sacrificed and the right femurs were collected for analysis. Periosteal bone induction was assessed using radiography and DEXA. […] The bone mineral content (BMC) of the injected region of the femur (area between lesser trochanter and mid-shaft of the femur) was assessed by DEXA comparing rats treated with test compound with those treated only with vehicle. In this model, N^4-(3,5-dimethoxy-benzyl)-N^2-(2-pyridin-4-yl-ethyl)-pyrido[2,3-d]pyrimidine-2,4-diamine, 2-(3-{3-[4-(3,4-dimethoxy-benzylamino)-pyrido[2,3-d]pyrimidin-2-ylamino]-propyl}-phenyl)-propan-2-ol, and N^4-(3,4-dimethoxy-benzyl)-N^2-(3-phenyl-propyl)-pyrido[2,3-d]pyrimidine-2,4-diamine increased BMC by 34%, 49%, and 33% respectively. Additionally, 9-(1-acetyl-4-phenyl-butyl)-2-(3,4-dimethoxy-benzyl)-1,9-dihydropurin-6-one increased BMC by 20% in the aforementioned model.

fractured right femurs = assay: Rat transverse femoral fracture model; format: in vivo; conditions: single 5 mg dose injected percutaneously into fracture site; three weeks after injection; male rats
Method: Male Sprague-Dawley rats at 3 to 4 months of age were used. The animals were anesthetized with ketamine and xylazine at doses of 100 and 10 mg/kg, respectively. The right hindlimb of each rat was shaved and cleaned. A 1 cm incision was made just lateral to the patella and the femoral condyle was exposed. A Kirschner wire (0.045″ in diameter) was introduced into the intramedullary canal through the intercondylar portion to serve as an internal stabilization. The muscle incision was closed with vicryl and the skin incision was closed with stainless steel wound clips. The mid-diaphysis of the pinned femur was fractured by means of a three-point bending device driven by a dropped weight. The rats were permitted full weight-bearing and unrestricted activity after awakening from anesthesia. The test compounds were administered on various days after surgery by percutaneous injection onto the fracture site. The animals were sacrificed after treatment and the femurs were collected for analysis. Fracture healing was evaluated by using radiography, histological, and biomechanical test (F. Bonnarens, et al., Journal of Orthopaedic Research, 2, 97-101 (1984).
Three month-old male rats were subjected to transverse fracture of their right femurs under general anesthesia. […] Three weeks after the injections, the rats were sacrificed and the right femurs were harvested and analyzed. […]

[3] = SPA, 1 μM substrate, read-out: PDE 2 Inhibition

T1 sequence (O00408 whole entry): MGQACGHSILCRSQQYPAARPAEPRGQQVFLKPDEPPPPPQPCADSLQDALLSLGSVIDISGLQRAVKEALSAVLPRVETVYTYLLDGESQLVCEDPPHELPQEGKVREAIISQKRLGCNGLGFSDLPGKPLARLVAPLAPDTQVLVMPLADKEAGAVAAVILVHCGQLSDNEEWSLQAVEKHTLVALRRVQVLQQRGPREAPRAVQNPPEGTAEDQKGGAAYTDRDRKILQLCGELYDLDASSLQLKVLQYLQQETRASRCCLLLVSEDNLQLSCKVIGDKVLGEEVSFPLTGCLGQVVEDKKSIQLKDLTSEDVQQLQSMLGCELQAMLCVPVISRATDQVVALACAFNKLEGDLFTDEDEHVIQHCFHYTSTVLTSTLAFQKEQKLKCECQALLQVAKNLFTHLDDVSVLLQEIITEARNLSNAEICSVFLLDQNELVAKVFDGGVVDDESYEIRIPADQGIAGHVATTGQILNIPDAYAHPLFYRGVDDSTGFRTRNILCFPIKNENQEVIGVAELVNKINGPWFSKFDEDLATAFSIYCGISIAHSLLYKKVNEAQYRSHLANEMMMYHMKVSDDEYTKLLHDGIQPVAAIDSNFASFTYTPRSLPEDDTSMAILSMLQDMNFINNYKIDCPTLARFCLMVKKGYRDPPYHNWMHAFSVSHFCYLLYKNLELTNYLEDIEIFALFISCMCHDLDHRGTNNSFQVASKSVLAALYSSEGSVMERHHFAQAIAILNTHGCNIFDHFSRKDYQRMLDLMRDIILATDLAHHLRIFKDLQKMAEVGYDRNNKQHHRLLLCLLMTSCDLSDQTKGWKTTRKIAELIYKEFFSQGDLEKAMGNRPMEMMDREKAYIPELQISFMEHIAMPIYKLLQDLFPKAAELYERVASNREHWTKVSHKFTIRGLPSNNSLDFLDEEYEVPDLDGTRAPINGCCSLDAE

Row | SMILES | IC50 ([1]; PDE 2, read-out: IC50) [nM] | bone mineral content (BMC) increase of injected region of femur by DEXA vs vehicle [2] [%] | IC50 [1, 3] [nM] | melting point [°C] | Force-to-failure increased compared to placebo (fractured right femurs) [%] | stiffness increased compared to placebo (fractured right femurs) [%]
1 | COc1ccc(Cc2nc3c(ncn3C(CCCc3ccccc3)C(C)=O)c(=O)[nH]2)cc1OC (stereo not shown) [9-(1-acetyl-4-phenyl-butyl)-2-(3,4-dimethoxy-benzyl)-1,9-dihydropurin-6-one, reference compound] | 3 | 20 | – | – | – | –
2 | COc1cc(CNc2nc(NCCc3ccncc3)nc3ncccc23)cc(OC)c1 [Example 3, N^4-(3,5-Dimethoxy-benzyl)-N^2-(2-pyridin-4-yl-ethyl)-pyrido[2,3-d]pyrimidine-2,4-diamine] | – | 34 | 250 to 1000 | 234 to 235 | – | –
3 | COc1ccc(CNc2nc(NCCCc3cccc(C(C)(C)O)c3)nc3ncccc23)cc1OC [Example 29, 2-(3-{3-[4-(3,4-Dimethoxy-benzylamino)-pyrido[2,3-d]pyrimidin-2-ylamino]-propyl}-phenyl)-propan-2-ol] | – | 49 | 250 to 1000 | 204 to 205 | – | –
4 | COc1ccc(CNc2nc(NCCCc3ccccc3)nc3ncccc23)cc1OC [Example 32, N^4-(3,4-Dimethoxy-benzyl)-N^2-(3-phenyl-propyl)-pyrido[2,3-d]pyrimidine-2,4-diamine] | – | 33 | 250 to 1000 | 190 to 192 | 19 | 62
5 | COc1cc(CNc2nc(NCc3cc(OC)cc(OC)c3)c3cccnc3n2)cc(OC)c1 [Example 5, N^2-N^4-Bis-(3,5-dimethoxy-benzyl)-pyrido[2,3-d]pyrimidine-2,4-diamine] | – | – | < 50 | 159 to 160 | – | –
6 | COc1ccc(CNc2nc(NCCCc3ccc(C#N)cc3)nc3ncccc23)cc1OC [Example 30, 4-{3-[4-(3,4-Dimethoxy-benzylamino)-pyrido[2,3-d]pyrimidin-2-ylamino]-propyl}-benzonitrile] | – | – | 250 to 1000 | 220 to 222 | – | –
7 | COc1cc(CCNc2nc(NCc3cc(OC)cc(OC)c3)c3cccnc3n2)cc(OC)c1 [Example 13, N^4-(3,5-Dimethoxy-benzyl)-N^2-[2-(3,5-dimethoxy-phenyl)-ethyl]-pyrido[2,3-d]pyrimidine-2,4-diamine] | – | – | 50 to 250 | 95 to 100 | – | –
8 | COc1ccc(CNc2nc(NCCCc3ccc(C(C)=O)cc3)nc3ncccc23)cc1OC [Example 24, 1-(4-{3-[4-(3,4-Dimethoxy-benzylamino)-pyrido[2,3-d]pyrimidin-2-ylamino]-propyl}-phenyl)-ethanone] | – | – | 250 to 1000 | 184 to 185 | – | –
9 | COc1cc(CNc2nc(NCc3ccc(C(C)(C)O)cc3)nc3ncccc23)cc(OC)c1 [Example 11, 2-(4-{[4-(3,5-Dimethoxy-benzylamino)-pyrido[2,3-d]pyrmidin-2-ylamino]-methyl}-phenyl)-propan-2-ol] | – | – | 250 to 1000 | 105 to 109 | – | –
10 | COc1ccc(CNc2nc(NCc3ccc(C(O)C(F)(F)F)cc3)nc3ncccc23)cc1OC (stereo not shown) [Example 23, 1-(4-{[4-(3,4-Dimethoxy-benzylamino)-pyrido[2,3-d]pyrimidin-2-ylamino]-methyl}-phenyl)-2,2,2-trifluoro-ethanol] | – | – | 250 to 1000 | 121 to 122 | – | –

From patent US20070135457A1, “Pyrido[2,3-d]pyrimidine-2,4-diamines as pde2 inhibitors” (Pfizer Inc., priority 2003, published 2007)
